Experimental data from ChEMBL document CHEMBL1201862, “PubChem BioAssay data set” (2004).
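Cells were grown in 96-well plates and exposed to each compound for 48 hours at five concentrations; endpoints were interpolated linearly between bracketing concentrations, or set to the highest concentration if not reached. Abbreviation: GI50, concentration required for 50% inhibition of growth.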 The source made the active and inactive calls. No stated cut-off is given here; in the data, active = GI50 up to about 1.1 µM and inactive = higher.

Assays:
Assay in all cases: inhibition of tumour cell growth, NCI panel, 48 h
MOLT-4 = system: MOLT-4
OVCAR-4 = system: OVCAR-4
OVCAR-8 = system: OVCAR-8
TK-10 = system: TK-10
Malme-3M = system: Malme-3M
IGROV-1 = system: IGROV-1
MCF7 = system: MCF7
RPMI-8226 = system: RPMI-8226
HOP-62 = system: HOP-62
SF-268 = system: SF-268
Hs-578T = system: Hs-578T
UACC-62 = system: UACC-62
EKVX = system: EKVX
HT-29 = system: HT-29
CCRF-CEM = system: CCRF-CEM
MDA-MB-435 = system: MDA-MB-435
SR = system: SR
HCC 2998 = system: HCC 2998
NCI-H226 = system: NCI-H226
A498 = system: A498

SMILES | GI50 (MOLT-4) | GI50 (OVCAR-4) | GI50 (OVCAR-8) | GI50 (TK-10) | GI50 (Malme-3M) | GI50 (IGROV-1) | GI50 (MCF7) | GI50 (RPMI-8226) | GI50 (HOP-62) | GI50 (SF-268) | GI50 (Hs-578T) | GI50 (UACC-62) | GI50 (EKVX) | GI50 (HT-29) | GI50 (CCRF-CEM) | GI50 (MDA-MB-435) | GI50 (SR) | GI50 (HCC 2998) | GI50 (NCI-H226) | GI50 (A498)
CCCCCCCCCCCC(=O)Oc1c(Cl)cc(Cl)c(OC(=O)C(=O)Oc2c(Cl)cc(Cl)c(OC(=O)CCCCCCCCCCC)c2Cl)c1Cl | 46.6 µM (inactive) | > 100 µM (inactive) | > 100 µM (inactive) | > 100 µM (inactive) | > 100 µM (inactive) | > 100 µM (inactive) | > 100 µM (inactive) | > 100 µM (inactive) | > 100 µM (inactive) | > 100 µM (inactive) | > 100 µM (inactive) | > 100 µM (inactive) | > 100 µM (inactive) | > 100 µM (inactive) | > 100 µM (inactive) | > 100 µM (inactive) | > 100 µM (inactive) |  |  | 
O=C1CS(=O)(=O)C(c2cccc(Oc3ccccc3)c2)N1C1CC1 (centres undefined) | 30.4 µM (inactive) | 29.2 µM (inactive) | 38.5 µM (inactive) | 44.7 µM (inactive) | > 100 µM (inactive) |  | 22.8 µM (inactive) |  |  | 64.7 µM (inactive) | > 100 µM (inactive) | 31.6 µM (inactive) | 29 µM (inactive) | 32.7 µM (inactive) | 60.1 µM (inactive) | 26.2 µM (inactive) | 31.6 µM (inactive) | 44 µM (inactive) | 26.9 µM (inactive) | 
CN1C(=O)N/C(=C\c2ccc(S(=O)(=O)NN)cc2)C1=O | > 100 µM (inactive) | > 100 µM (inactive) | > 100 µM (inactive) | > 100 µM (inactive) | > 100 µM (inactive) | > 100 µM (inactive) | > 100 µM (inactive) | > 100 µM (inactive) | > 100 µM (inactive) | > 100 µM (inactive) | > 100 µM (inactive) | > 100 µM (inactive) | > 100 µM (inactive) | > 100 µM (inactive) | > 100 µM (inactive) | > 100 µM (inactive) |  | > 100 µM (inactive) | > 100 µM (inactive) | > 100 µM (inactive)
COCOc1cc(OC)ccc1C/C=N/O | > 100 µM (inactive) | > 100 µM (inactive) | > 100 µM (inactive) | > 100 µM (inactive) | > 100 µM (inactive) | > 100 µM (inactive) | > 100 µM (inactive) |  | > 100 µM (inactive) | > 100 µM (inactive) | > 100 µM (inactive) | > 100 µM (inactive) | > 100 µM (inactive) | > 100 µM (inactive) | > 100 µM (inactive) | > 100 µM (inactive) | > 100 µM (inactive) | > 100 µM (inactive) | > 100 µM (inactive) | 
Clc1ccccc1/C=c1\nc(-c2ccccc2)n2c1nc1ccccc12 | > 100 µM (inactive) | > 100 µM (inactive) | 31.2 µM (inactive) | 31.4 µM (inactive) | > 100 µM (inactive) | 27.2 µM (inactive) | > 100 µM (inactive) | 84.3 µM (inactive) | 20.8 µM (inactive) | 19.8 µM (inactive) | 25.8 µM (inactive) | 30.8 µM (inactive) | 13.4 µM (inactive) | > 100 µM (inactive) | > 100 µM (inactive) | > 100 µM (inactive) |  |  | > 100 µM (inactive) | > 100 µM (inactive)
Cc1ccc2c(c1)nc1n2C(c2c(F)cccc2F)SC1 (centres undefined) | 14.1 µM (inactive) | > 100 µM (inactive) | 39.5 µM (inactive) | 81.1 µM (inactive) | 18.9 µM (inactive) | 50.6 µM (inactive) | 41.7 µM (inactive) | 34.4 µM (inactive) | 57 µM (inactive) | 44.5 µM (inactive) | 15.7 µM (inactive) | > 10 µM (inactive) | 30.8 µM (inactive) | 28.8 µM (inactive) | 21 µM (inactive) | 29.6 µM (inactive) | 24.4 µM (inactive) | 32.1 µM (inactive) | 29 µM (inactive) | 
O=c1cc(N2CCN(c3cc(=O)n4ccccc4n3)CC2)oc2ccccc12 | 33.6 µM (inactive) | > 100 µM (inactive) | > 51.4 µM (inactive) | > 100 µM (inactive) | > 100 µM (inactive) | 95.5 µM (inactive) | > 70.5 µM (inactive) | 23 µM (inactive) |  | 25.6 µM (inactive) | 36.2 µM (inactive) | > 100 µM (inactive) | 31.2 µM (inactive) | 38 µM (inactive) | 6.7 µM (inactive) | 55 µM (inactive) |  | 33.5 µM (inactive) | > 76.2 µM (inactive) | > 84.5 µM (inactive)
O=C1CC(C(=O)O)Cc2c(Br)ccc(O)c21 (centres undefined) | > 100 µM (inactive) | > 100 µM (inactive) | > 100 µM (inactive) | > 100 µM (inactive) | > 100 µM (inactive) | > 100 µM (inactive) | > 100 µM (inactive) | > 100 µM (inactive) | > 100 µM (inactive) | > 100 µM (inactive) | > 100 µM (inactive) | > 100 µM (inactive) | 78.2 µM (inactive) | > 100 µM (inactive) | > 100 µM (inactive) | > 100 µM (inactive) | 43.7 µM (inactive) | > 100 µM (inactive) | 95.9 µM (inactive) | 
Cc1c(NC(=O)CCl)c(=O)oc2c(C)c3occc(=O)c3cc12 | 1.37 µM (inactive) | 11.5 µM (inactive) | 13.9 µM (inactive) | 14.5 µM (inactive) | 21.1 µM (inactive) | 11.6 µM (inactive) | 6.79 µM (inactive) | 7.87 µM (inactive) | 13.8 µM (inactive) | 6.95 µM (inactive) | 15.5 µM (inactive) |  | 18.9 µM (inactive) | 14.9 µM (inactive) | 3.48 µM (inactive) |  | 6.49 µM (inactive) | 16.9 µM (inactive) |  | 16.9 µM (inactive)
Cc1ccc(/C=C2\CN(C)CC3C2=NN(c2ccccc2)C3c2ccc(C)cc2)cc1 (centres undefined) | 36.4 µM (inactive) | > 100 µM (inactive) | > 100 µM (inactive) | > 100 µM (inactive) | 36.6 µM (inactive) | > 100 µM (inactive) | > 100 µM (inactive) |  | > 100 µM (inactive) | > 100 µM (inactive) | > 100 µM (inactive) | > 100 µM (inactive) | 76.7 µM (inactive) | > 100 µM (inactive) | 29 µM (inactive) | > 100 µM (inactive) |  | > 100 µM (inactive) | > 100 µM (inactive) | 35.3 µM (inactive)
CSCCC(NCc1c(O)ccc2c(-c3ccccc3)cc(=O)oc12)C(=O)O (centres undefined) | > 100 µM (inactive) | > 100 µM (inactive) | > 100 µM (inactive) | > 100 µM (inactive) | > 100 µM (inactive) | > 100 µM (inactive) | > 100 µM (inactive) | > 100 µM (inactive) | > 100 µM (inactive) | > 100 µM (inactive) | > 100 µM (inactive) | > 100 µM (inactive) | > 100 µM (inactive) | > 100 µM (inactive) | > 100 µM (inactive) | > 100 µM (inactive) | > 100 µM (inactive) | > 100 µM (inactive) | > 100 µM (inactive) | 
O=c1[nH]nc(Cc2ccccc2)n1N=C1CCCCC1 | > 100 µM (inactive) | > 100 µM (inactive) | > 100 µM (inactive) | > 100 µM (inactive) | > 100 µM (inactive) | > 100 µM (inactive) | > 100 µM (inactive) | > 100 µM (inactive) | > 100 µM (inactive) | > 100 µM (inactive) | > 100 µM (inactive) | > 100 µM (inactive) | < 0.01 µM (active) | 58.7 µM (inactive) | > 100 µM (inactive) | > 100 µM (inactive) |  |  | > 100 µM (inactive) | > 100 µM (inactive)
CCCCOCOc1ccccc1P1(=O)COc2ccccc2OC1 |  | 42.2 µM (inactive) |  | 20.8 µM (inactive) | > 100 µM (inactive) | > 100 µM (inactive) | 75 µM (inactive) | 87.9 µM (inactive) | > 100 µM (inactive) | > 100 µM (inactive) | 54 µM (inactive) | 66.2 µM (inactive) | > 100 µM (inactive) | > 100 µM (inactive) | > 100 µM (inactive) | > 100 µM (inactive) | 37.1 µM (inactive) | > 100 µM (inactive) |  | 
CCC(=O)n1c(=O)n(-c2ccc([N+](=O)[O-])cc2)c(=O)n1C(=O)CC | > 100 µM (inactive) | > 100 µM (inactive) | > 100 µM (inactive) | > 100 µM (inactive) |  | > 100 µM (inactive) | > 100 µM (inactive) | > 100 µM (inactive) | > 100 µM (inactive) | > 100 µM (inactive) | > 100 µM (inactive) | > 100 µM (inactive) | > 100 µM (inactive) | > 100 µM (inactive) | > 100 µM (inactive) | > 100 µM (inactive) | > 100 µM (inactive) | > 100 µM (inactive) | > 100 µM (inactive) | 
CCOC(=O)/C=C(/N=P(c1ccccc1)(c1ccccc1)c1ccccc1)C(F)(F)F | > 10 µM (inactive) | > 10 µM (inactive) | > 10 µM (inactive) | > 10 µM (inactive) | > 10 µM (inactive) | > 10 µM (inactive) |  | > 10 µM (inactive) | > 10 µM (inactive) | > 10 µM (inactive) | > 10 µM (inactive) | 5.9 µM (inactive) | > 10 µM (inactive) | > 10 µM (inactive) | > 10 µM (inactive) | > 10 µM (inactive) | > 10 µM (inactive) | 22 µM (inactive) | > 10 µM (inactive) | > 10 µM (inactive)
